Measurements as given in patent US4396550A, “Dibenz [b,e] oxepin derivatives” (Kyowa Hakko Kogyo Co., Ltd., priority 1980, dated 1983).

What was measured:
[1] = system: isolated ileum of guinea-pig; test: Test for antihistaminergic effects on the isolated ileum of guinea-pig (histamine contraction, in vitro); design: species or system guinea-pig (male Hartly-strain); conditions: Cavia porcellus, 0.05 h; depressing ratio of 80% or more of histamine contraction; read-out: Antihistaminergic activity: MED
Method: (§1) Male Hartly-strain guinea-pigs weighing about 250 g are killed and the abdomen is opened. The part (2-3 cm in length) of the ileum 10 cm away from the caecum to the pylorus is cut off as a preparation. The preparation is suspended with serre-fine in a Magnus bath containing 10 ml of Tyrode's solution at 32±1° C. under an air bubble. The contraction of the ileum is recorded on Kymograph through hebel when 0.1 ml of acetylcholine at a concentration of 10^-3 g/ml is added to the Tyrode's solution.
(§2) On the other hand, 3 minutes after administration of the test compounds, the same procedure as mentioned above is carried out to record the contraction.
In this test, 0.1 ml of histamine at a concentration of 5×10^-3 g/l is used.

[2] = system: blood platelets (platelet-rich plasma); test: Test for the inhibition of platelet aggregation (collagen-induced, platelet-rich plasma); format: cell-based, male white rabbits; conditions: Oryctolagus cuniculus, Platelet, 0.05 h; depressing ratio of 50% of collagen-induced aggregation; compound 3 minutes before; read-out: Antiplatelet aggregation activity: MED
Method: In this test, 9 vols. of blood are sampled from the caroted artery of male white rabbits weighing 2 to 2.5 kg and placed in a silicon-coated flask containing 1 vol. of 3.8% sodium citrate. The thus obtained blood is centrifuged at 1,000 rpm for 15 minutes to obtain platelet-rich plasma. The aggregation of the blood platelets is observed using an aggregometer, when collagen is added to the platelet-rich plasma to the extent of the final concentration that 50% of platelet aggregation is caused in the presence of 100 γ/ml of aspirin. On the other hand, 3 minutes after administration of the test compounds to the platelet-rich plasma, the same procedure as mentioned above is carried out to observe the aggregation of blood platelet. The test compounds showing a depressing ratio of 50%, compared with the inhibition of aggregation by collagen alone, are concluded to have antiplatelet aggregation activity.

male dd-strain rats = test: Acute toxicity test (minimum lethal dose); format: in vivo; conditions: mortality for 7 days
Method: Groups of male dd-strain rats (each group consisting of five rats) weighing 20±1 g were used. The compounds of the present invention were administered orally (po: 0.3 mg/g) or intraperitoneally (ip: 0.1 mg/g). The MLD (minimum lethal dose) was calculated from the mortality for 7 days after the administration to obtain the results given in Table 1.

Antiasthmatic activity = format: in vivo; conditions: po; read-out: Antiasthmatic activity: MED
[3] = system: isolated ileum of guinea-pig; test: Test for anticholinergic effects on the isolated ileum of guinea-pig (acetylcholine contraction, in vitro); design: species or system guinea-pig (male Hartly-strain); conditions: Cavia porcellus, 0.05 h; depressing ratio of 80% or more of acetylcholine contraction; compound 3 minutes before; read-out: Anticholinergic activity: MED (minimum effective dose)
Method: as §1, §2

In the case of `CCN(CC)CCNC1c2ccccc2COc2ccc(C)cc21` (stereo not drawn) [Compound 8, 2-methyl-11-{2-(diethylamino)ethyl}amino-6,11-dihydrodibenz[b,e]oxepin], the minimal effective concentration [1] is reported as 1 µg/mL, the minimal effective concentration [2] is reported as 20 µg/mL and the “Acute toxicity: MLD (minimum lethal dose)” value (shortened to “Acute toxicity: MLD”) (male dd-strain rats; ip) is reported as greater than 100 mg/kg. The “Acute toxicity: MLD” value (male dd-strain rats; po) was 200 mg/kg, the minimal effective dose (Antiasthmatic activity) was 25 mg/kg and the minimal effective concentration [3] was 10 µg/mL.

For `CCN(CC)CCNC1c2ccccc2COc2ccc(F)cc21` (stereo not drawn) [Compound 9, 2-fluoro-11-{2-(diethylamino)ethyl}amino-6,11-dihydrodibenz[b,e]oxepin], the minimal effective concentration [1] was 1 µg/mL, the minimal effective concentration [2] was 50 µg/mL and the “Acute toxicity: MLD” value (male dd-strain rats; ip) was 100 mg/kg. The “Acute toxicity: MLD” value (male dd-strain rats; po) was greater than 300 mg/kg, the minimal effective dose (Antiasthmatic activity) was 50 mg/kg and the minimal effective concentration [3] was 3 µg/mL.

With `CCC(C)c1ccc2c(c1)C(NCCN(CC)CC)c1ccccc1CO2` (stereo not drawn) [Compound 11, 2-(1-methyl) propyl-11-{2-(diethylamino)ethyl}amino-6,11-dihydrodibenz[b,e]oxepin] the minimal effective concentration [1] was 0.3 µg/mL, the minimal effective concentration [2] was 10 µg/mL and the “Acute toxicity: MLD” value (male dd-strain rats; ip) was 100 mg/kg. For the same compound, the “Acute toxicity: MLD” value (male dd-strain rats; po) was greater than 300 mg/kg, the minimal effective dose (Antiasthmatic activity) was 100 mg/kg and the minimal effective concentration [3] was 0.03 µg/mL.

In the case of `CCN(CC)CCNC1c2ccccc2COc2ccc(OC)cc21` (stereo not drawn) [Compound 13, 2-methoxy-11-{2-(diethylamino)ethyl}amino-6,11-dihydrodibenz[b,e]oxepin], the minimal effective concentration [1] is reported as 0.3 µg/mL, the minimal effective concentration [2] is reported as 20 µg/mL and the “Acute toxicity: MLD” value (male dd-strain rats; ip) is reported as greater than 100 mg/kg. The “Acute toxicity: MLD” value (male dd-strain rats; po) was greater than 300 mg/kg, the minimal effective dose (Antiasthmatic activity) was 100 mg/kg and the minimal effective concentration [3] was 1 µg/mL.

With `Cc1ccc2c(c1)C(NCCCN(C)C)c1ccccc1CO2` (stereo not drawn) [Compound 14, 2-methyl-11-{3-(dimethylamino)propyl}amino-6,11-dihydrodibenz[b,e]oxepin] the minimal effective concentration [1] was 10 µg/mL, the minimal effective concentration [2] was 20 µg/mL and the “Acute toxicity: MLD” value (male dd-strain rats; ip) was greater than 100 mg/kg. For the same compound, the “Acute toxicity: MLD” value (male dd-strain rats; po) was greater than 300 mg/kg, the minimal effective dose (Antiasthmatic activity) was 100 mg/kg and the minimal effective concentration [3] was 10 µg/mL.

For `Cc1ccc2c(c1)C(NCCN(C)C)c1ccccc1CO2` (stereo not drawn) [Compound 16, 2-methyl-11-{2-(dimethylamino)ethyl}amino-6,11-dihydrodibenz[b,e]oxepin], the minimal effective concentration [1] was 10 µg/mL, the minimal effective concentration [2] was 50 µg/mL and the “Acute toxicity: MLD” value (male dd-strain rats; ip) was greater than 100 mg/kg. The “Acute toxicity: MLD” value (male dd-strain rats; po) was 300 mg/kg, the minimal effective dose (Antiasthmatic activity) was 25 mg/kg and the minimal effective concentration [3] was 3 µg/mL.

For `CCc1ccc2c(c1)C(NCCN(C)C)c1ccccc1CO2` (stereo not drawn) [Compound 17, 2-ethyl-11-{2-(dimethylamino)ethyl}amino-6,11-dihydrodibenz[b,e]oxepin], the minimal effective concentration [1] was 0.3 µg/mL, the minimal effective concentration [2] was 50 µg/mL and the “Acute toxicity: MLD” value (male dd-strain rats; ip) was greater than 100 mg/kg. The “Acute toxicity: MLD” value (male dd-strain rats; po) was 300 mg/kg, the minimal effective dose (Antiasthmatic activity) was 10 mg/kg and the minimal effective concentration [3] was 0.01 µg/mL.

In the case of `CN(C)CCNC1c2ccccc2COc2ccc(F)cc21` (stereo not drawn) [Compound 18, 2-fluoro-11-{2-(dimethylamino)ethyl}amino-6,11-dihydrodibenz[b,e]oxepin], the minimal effective concentration [1] is reported as 0.3 µg/mL, the minimal effective concentration [2] is reported as 50 µg/mL and the “Acute toxicity: MLD” value (male dd-strain rats; ip) is reported as greater than 100 mg/kg. The “Acute toxicity: MLD” value (male dd-strain rats; po) was greater than 300 mg/kg, the minimal effective dose (Antiasthmatic activity) was 10 mg/kg and the minimal effective concentration [3] was 0.3 µg/mL.

In the case of `CN(C)CCNC1c2ccccc2COc2ccc(Cl)cc21` (stereo not drawn) [Compound 19, 2-chloro-11-{2-(dimethylamino)ethyl}amino-6,11-dihydrodibenz[b,e]oxepin], the minimal effective concentration [1] is reported as 1 µg/mL, the minimal effective concentration [2] is reported as 50 µg/mL and the “Acute toxicity: MLD” value (male dd-strain rats; ip) is reported as greater than 100 mg/kg. The “Acute toxicity: MLD” value (male dd-strain rats; po) was greater than 300 mg/kg, the minimal effective dose (Antiasthmatic activity) was 25 mg/kg and the minimal effective concentration [3] was 3 µg/mL.

In the case of `Cc1ccc2c(c1)C(NC1CN3CCC1CC3)c1ccccc1CO2` (stereo not drawn) [Compound 20, 2-methyl-11-(3-quinuclidinyl)amino-6,11-dihydrodibenz[b,e]oxepin], the minimal effective concentration [1] is reported as 0.1 µg/mL, the minimal effective concentration [2] is reported as 100 µg/mL and the “Acute toxicity: MLD” value (male dd-strain rats; ip) is reported as 50 mg/kg. The “Acute toxicity: MLD” value (male dd-strain rats; po) was 300 mg/kg, the minimal effective dose (Antiasthmatic activity) was 50 mg/kg and the minimal effective concentration [3] was 1 µg/mL.

With `CCc1ccc2c(c1)C(NC1CN3CCC1CC3)c1ccccc1CO2` (stereo not drawn) [Compound 21, 2-ethyl-11-(3-quinuclidinyl)amino-6,11-dihydrodibenz[b,e]oxepin] the minimal effective concentration [1] was 0.1 µg/mL, the minimal effective concentration [2] was 50 µg/mL and the “Acute toxicity: MLD” value (male dd-strain rats; ip) was 100 mg/kg. For the same compound, the “Acute toxicity: MLD” value (male dd-strain rats; po) was 300 mg/kg, the minimal effective dose (Antiasthmatic activity) was 25 mg/kg and the minimal effective concentration [3] was 0.1 µg/mL.

In the case of `Fc1ccc2c(c1)C(NC1CN3CCC1CC3)c1ccccc1CO2` (stereo not drawn) [Compound 22, 2-fluoro-11-(3-quinuclidinyl)amino-6,11-dihydrodibenz[b,e]oxepin], the minimal effective concentration [1] is reported as 0.3 µg/mL, the minimal effective concentration [2] is reported as 100 µg/mL and the “Acute toxicity: MLD” value (male dd-strain rats; ip) is reported as 100 mg/kg. The “Acute toxicity: MLD” value (male dd-strain rats; po) was 300 mg/kg, the minimal effective dose (Antiasthmatic activity) was 50 mg/kg and the minimal effective concentration [3] was 0.3 µg/mL.

With `Clc1ccc2c(c1)C(NC1CN3CCC1CC3)c1ccccc1CO2` (stereo not drawn) [Compound 23, 2-chloro-11-(3-quinuclidinyl)amino-6,11-dihydrodibenz[b,e]oxepin] the minimal effective concentration [1] was 0.3 µg/mL, the minimal effective concentration [2] was 100 µg/mL and the “Acute toxicity: MLD” value (male dd-strain rats; ip) was 100 mg/kg. The “Acute toxicity: MLD” value (male dd-strain rats; po) was 300 mg/kg, the minimal effective dose (Antiasthmatic activity) was 50 mg/kg and the minimal effective concentration [3] was 1 µg/mL.

For `COc1ccc2c(c1)C(NC1CN3CCC1CC3)c1ccccc1CO2` (stereo not drawn) [Compound 24, 2-methoxy-11-(3-quinuclidinyl)amino-6,11-dihydrodibenz[b,e]oxepin], the minimal effective concentration [1] was 0.1 µg/mL, the minimal effective concentration [2] was 100 µg/mL and the “Acute toxicity: MLD” value (male dd-strain rats; ip) was 100 mg/kg. The “Acute toxicity: MLD” value (male dd-strain rats; po) was 200 mg/kg, the minimal effective dose (Antiasthmatic activity) was 50 mg/kg and the minimal effective concentration [3] was 0.3 µg/mL.

In the case of `CCN1CCCC1CNC1c2ccccc2COc2ccc(C)cc21` (stereo not drawn) [Compound 28, 2-methyl-11-{(1-ethyl-2-pyrrolidinyl)methyl}-amino-6,11-dihydrodibenz[b,e]oxepin], the minimal effective concentration [1] is reported as 1 µg/mL, the minimal effective concentration [2] is reported as 50 µg/mL and the “Acute toxicity: MLD” value (male dd-strain rats; ip) is reported as 100 mg/kg. For the same compound, the “Acute toxicity: MLD” value (male dd-strain rats; po) was 300 mg/kg, the minimal effective dose (Antiasthmatic activity) was 25 mg/kg and the minimal effective concentration [3] was 1 µg/mL.

With `CCc1ccc2c(c1)C(NCCN1CCCCC1)c1ccccc1CO2` (stereo not drawn) [Compound 35, 2-ethyl-11-(2-piperidinoethyl)amino-6,11-dihydrodibenz[b,e]oxepin] the minimal effective concentration [1] was 1 µg/mL, the minimal effective concentration [2] was 20 µg/mL and the “Acute toxicity: MLD” value (male dd-strain rats; ip) was greater than 100 mg/kg. For the same compound, the “Acute toxicity: MLD” value (male dd-strain rats; po) was 300 mg/kg, the minimal effective dose (Antiasthmatic activity) was 25 mg/kg and the minimal effective concentration [3] was 3 µg/mL.

For `CCc1ccc2c(c1)C(N1CCN(CCO)CC1)c1ccccc1CO2` (stereo not drawn) [Compound 38, 2-ethyl-11-{4-(2-hydroxyethyl)-1-piperazinyl}-6,11-dihydrodibenz[b,e]oxepin], the minimal effective concentration [1] was 1 µg/mL, the minimal effective concentration [2] was 100 µg/mL and the “Acute toxicity: MLD” value (male dd-strain rats; ip) was greater than 100 mg/kg. For the same compound, the “Acute toxicity: MLD” value (male dd-strain rats; po) was greater than 300 mg/kg, the minimal effective dose (Antiasthmatic activity) was 100 mg/kg and the minimal effective concentration [3] was 1 µg/mL.
